One molecule from publication PMC11500415, “Chemical inhibition of stomatal differentiation by perturbation of the master-regulatory bHLH heterodimer via an ACT-Like domain” (Nature Communications, 2024) can be followed below.

The series in a line: Stability with acid or base in organic solvent. Format: physicochemical. The conditions noted are these: 1,2-dichloroethane, 40 °C, 3 h. The text has this: To examine the stability of Stomidazolone and identify any degraded products (if unstable), we treated Stomidazolone with an acid or a base. […] The major degraded product under basic conditions was isolated with gel-permeation chromatography (GPC) in 48% yield. The product, which we designated as lzx103 (compound 4), was identified as (phenylsulfonyl)benzimidamide[39] through ^1H and ^13C NMR analyses (Supplementary Fig. 3a, Supplementary Data 1). […]
show any biological activity on stomatal development (see Revised Fig. S3), thus ruling out the possibility that the inhibition of stomatal differentiation is attributable to the degradation product rather than Stomidzaolone itself. The yield of Izx103 was determined through isolation. Please see the schematics below (presented as Fig. S3). These new findings are described in detail in our Revised Results section (see Page 6 "Stability of […]
with CH COOH (3.1 equiv.) HN […]
with NaOH (3.1 equiv.) NH2 […]
The authors should also provide a better 13C NMR spectrum of the compound in the SI, the current copy features rather weak signal intensities and some signals can only be suspected.
We re-synthesized Stomidazolone and substituted with a better 13C NMR spectrum of Stomidazolone in our revised Document S1. Thank you.
Finally, it should be mentioned in the MS right from the beginning that the compound is a racemic mixture (see also point 2 for this).
We sincerely appreciate Reviewer 2 for raising an important point. Please see our […]
observed effects are caused by Stomidazolone-mediated modulation of MUTE function. The authors use SIM1 during the plant assays which is however not an optimal control as it is not […]
in the biochemical assays, while active compounds are in contrast active in both assay types.
An almost optimal control for these phenotypic and biochemical assays in my view are the two enantiomers of Stomidazolone. […]

Take `O=C1C(c2ccccc2)=NC(NS(=O)(=O)c2ccccc2)(c2ccccc2)N1S(=O)(=O)c1ccccc1` (stereo not drawn) [Stomidazolone]: the “stability under acidic conditions” value (3 equiv. of acetic acid) is “stable”. Also, the “stability under basic conditions” value (3 equiv. of sodium hydroxide) is recorded as “completely degraded”. In addition, the “recovered by 1H NMR analysis” value (CH3COOH (3.1 equiv.)) worked out at 93%.
